From patent US20030097221A1, “Detection and characterization of psychoactives using parallel multi-site assays in brain tissue” (priority 2001, published 2003)
Where “and” joins values, the source holds several entries; their conditions need not be identical. Identical values can stand only once.

Columns and labels:
Assay type in all cases: cell-based, rat
[1] = system: glutamate receptor-mediated evoked excitatory synaptic transmission, hippocampal slice mossy fibers; test: Paired-pulse evoked fEPSP, mossy fibers (assay MF50), MED64; conditions: 250 μM; 50 ms inter-pulse delay
Description: (§1) A 17-24 day old Sprague Dawley rat was decapitated after anesthesia with halothane (2-bromo-2-chloro-1,1,1-trifluoroethane; Sigma; B4388), and the whole brain was removed. The brain was immediately soaked for ˜2 min in ice-cold, oxygenated preparation buffer of the following composition (in mM): 124 NaCl, 26 NaHCO3, 10 glucose, 3 KCl, 1.25 NaH2PO4, 2 CaCl2, and 2 MgSO4. Appropriate portions of the brain were trimmed and placed on the ice-cold stage of a vibrating tissue slicer (Leica, Nussloch, Germany; VT-1000S). The stage was immediately filled with both oxygenated and frozen preparation buffers. The thickness of each tissue slice was 350 μm. […]
(§2) Evoked field potentials at all 64 sites (minus stimulation sites) were recorded simultaneously with the multichannel recording system (Panasonic: MED64 system) at a 20 kHz sampling rate. […]
(§3) All assays employ paired-pulse stimulation at various rat hippocampal sites to elicit evoked responses. The resulting field EPSP recordings were analyzed using Matlab software (The MathWorks, Inc.) by computing several response measures such as amplitude, halfwidth, and negative area, which apply to both the first and second evoked reponses. Amplitude was defined as the maximum depolarization magnitude relative to the average baseline reading prior to the first stimulation pulse. […]

[2] = system: glutamate receptor-mediated evoked excitatory synaptic transmission, hippocampal slice dentate gyrus; test: Paired-pulse evoked fEPSP in dentate gyrus (assay DG50), MED64; conditions: 250 μM; 50 ms inter-pulse delay
Description: as §1, with “μm. Each slice was gently taken off the blade, and immediately soaked in the oxygenated artificial cerebrospinal fluid (ACSF) for at least 1 hr at room temperature. Then a slice was placed on the center of the MED probe. The slice was positioned to cover the 8×8 array. After positioning the slice, the MED probe was immediately placed in a box filled with 95% O2 and 5% CO2.” for “μm.”
as §2, §3
The polarity of the evoked responses for assay DG50 was reversed before analysis because of the inverted voltage values recorded by the DG50 electrode. Assays SC50, SC200, MF50, and CA3-1—50, however, were analyzed without such a reversal. […]
(§4) All response paramters were utilized to quantify candidate sample composition effects on the hippocampus. […]

[3] = system: hippocampal slice regions (CA1, DG, MF); test: Comparison between regions of the slice, area under the curve for all 4 assays (FIG. 9); conditions: prediction drawn from the results of FIG. 9
Description: as §3, with “pulse. Halfwidth was defined as the duration of the depolarization phase of the evoked response at half its maximum amplitude value. Negative area was obtained by taking the magnitude of the integral of the evoked response curve over all segments with the same polarity as the depolarization phase. This integral spans a time window of 25 msec beginning one msec after the stimulation pulse.” for “pulse.”
as §4
To compare the response of tissue slices to candidate sample compositions between different regions of the slice, the area under the curve for all 4 assays was calculated.
To compare the effect of compounds in candidate sample compositions between different regions of a tissue slice, the area under the curve for all 4 assays was calculated. […]

[4] = system: glutamate receptor-mediated evoked excitatory synaptic transmission, hippocampal slice CA1; test: Paired-pulse evoked fEPSP in CA1, Schaffer collateral stimulation (assays SC50, SC200), MED64 multi-electrode array; set-up: key to SC 50 ms Amplitude fEPSP 1st, Mean / SC 50 ms Amplitude fEPSP 2nd, Mean / SC 200 ms Widths fEPSP 1st, Mean / SC 200 ms Widths fEPSP 2nd, Mean: fractional change vs. last 5 min of pre-wash-in control phase
Description: A 17-24 day old Sprague Dawley rat was decapitated after anesthesia with halothane (2-bromo-2-chloro-1,1,1-trifluoroethane; Sigma; B4388), and the whole brain was removed. The brain was immediately soaked for ˜2 min in ice-cold, oxygenated preparation buffer of the following composition (in mM): 124 NaCl, 26 NaHCO3, 10 glucose, 3 KCl, 1.25 NaH2PO4, 2 CaCl2, and 2 MgSO4. Appropriate portions of the brain were trimmed and placed on the ice-cold stage of a vibrating tissue slicer (Leica, Nussloch, Germany; VT-1000S). The stage was immediately filled with both oxygenated and frozen preparation buffers. The thickness of each tissue slice was 350 μm. Each slice was gently taken off the blade, and immediately soaked in the oxygenated artificial cerebrospinal fluid (ACSF) for at least 1 hr at room temperature. Then a slice was placed on the center of the MED probe. The slice was positioned to cover the 8×8 array. After positioning the slice, the MED probe was immediately placed in a box filled with 95% O2 and 5% CO2.
During recording, the slices were continuously perfused with a solution of the following composition: ACSF (in mM): 124 NaCl, 26 NaHCO3, 10 glucose, 3 KCl, 1.25 kH2PO4, 2 CaCl2, 1 MgSO4. All compounds were bath applied at known concentrations and were prepared daily from frozen aliquots. Compounds were purchased from Sigma. Ampakines (CX516, CX546, CX554) were made fresh everyday, and used at concentrations: CX516, 250 μM; CX546, 250 μM; and CX554, 30 μM.
Baseline, application, and recovery time was usually at 10, 20, and 30 min respectively.
During electrophysiological recording, the slices on the MED probe were placed in a small CO2 incubator (Asahi Lifescience; model 4020) at 32° C. The slices were placed on an interface, and a moisturized with a 95% O2 and 5% CO2 gas mixture.
Evoked field potentials at all 64 sites (minus stimulation sites) were recorded simultaneously with the multichannel recording system (Panasonic: MED64 system) at a 20 kHz sampling rate. In the case of the evoked response, one of the planar microelectrodes out of the 64 available was used for the stimulating cathode. Bipolar constant-current pulses (10-50 μA; 0.1 ms) were produced by the data acquisition software via the isolator. The stimulating microelectrode was selected by the 64-switch box.
All assays employ paired-pulse stimulation at various rat hippocampal sites to elicit evoked responses. The resulting field EPSP recordings were analyzed using Matlab software (The MathWorks, Inc.) by computing several response measures such as amplitude, halfwidth, and negative area, which apply to both the first and second evoked reponses. Amplitude was defined as the maximum depolarization magnitude relative to the average baseline reading prior to the first stimulation pulse. Halfwidth was defined as the duration of the depolarization phase of the evoked response at half its maximum amplitude value. Negative area was obtained by taking the magnitude of the integral of the evoked response curve over all segments with the same polarity as the depolarization phase. This integral spans a time window of 25 msec beginning one msec after the stimulation pulse.
Amplitudes and halfwidths for both first and second elicited responses were computed for assays SC50, SC200, and CA3-1—50. For DG50 only first and second amplitudes were computed. Negative areas for first and second responses were computed for SC50, SC200, CA3-1—50, and MF50.
All response paramters were utilized to quantify candidate sample composition effects on the hippocampus. For a given response parameter, the candidate sample composition effect was defined as the percent change of the average measure during the last five minutes of the wash-in phase with respect to the average measure of the last five minutes of the preceding, pre-wash-in control phase. […]

[5] = CX516 250 μM, individual slice files, normalized change over control
[6] = CX516 250 μM, n = 4, normalized change over control

In the case of O=C(c1ccc2nccnc2c1)N1CCCCC1 [CX516, 1-(Quinoxalin-6-ylcarbonyl)piperidine], the “mossy fibers' response (area)” value [1] is reported as “increase”, the “responses recorded in dentate gyrus (amplitude)” value [2] is reported as “increase” and the “degree to which ampakines enhance activation of interneurons (rank order)” value [3] is reported as “CX554>CX546>CX516”. For the same compound, the “amplitude of both responses in CA1” value ([4]; 250 μM, 50 ms or 200 ms delay between stimulation pulses) was “increase in the amplitude”, the “effect on half-width of both responses” value ([4]; 250 μM, summary of Table 1) was “no effect” and the “increase of the amplitude of first and second fEPSP” value ([4]; 250 μM, summary of Table 1) was 15-17%. For the same compound, the “SC 50 ms Amplitude fEPSP 1st” value [4, 5] was 0.276 and 0.211 and 0.087 and 0.110, the “SC 50 ms Amplitude fEPSP 2nd” value [4, 5] was 0.246 and 0.192 and 0.044 and 0.085 and the “SC 50 ms Widths fEPSP 1st” value [4, 5] was 0.020 and −0.023 and 0.063 and 0.007. For the same compound, the “SC 50 ms Widths fEPSP 2nd” value [4, 5] was −0.001 and 0.017 and 0.045 and 0.026, the “SC 200 ms Amplitude fEPSP 1st” value [4, 5] was 0.260 and 0.206 and 0.093 and 0.114 and the “SC 200 ms Amplitude fEPSP 2nd” value [4, 5] was 0.258 and 0.194 and 0.067 and 0.085. The “SC 200 ms Widths fEPSP 1st” value [4, 5] was 0.036 and −0.024 and 0.051 and −0.002, the “SC 200 ms Widths fEPSP 2nd” value [4, 5] was 0.035 and 0.001 and 0.049 and 0.037 and the “SC 50 ms Amplitude fEPSP 1st, Change over Control (%)” value ([4]; CX516 250 μM, n = 4) was 17.108%. For the same compound, the “SC 50 ms Amplitude fEPSP 2nd, Change over Control (%)” value ([4]; CX516 250 μM, n = 4) was 14.178%, the “SC 50 ms Widths fEPSP 1st, Change over Control (%)” value ([4]; CX516 250 μM, n = 4) was 1.658% and the “SC 50 ms Widths fEPSP 2nd, Change over Control (%)” value ([4]; CX516 250 μM, n = 4) was 2.168%. For the same compound, the “SC 200 ms Amplitude fEPSP 1st, Change over Control (%)” value ([4]; CX516 250 μM, n = 4) was 16.825%, the “SC 200 ms Amplitude fEPSP 2nd, Change over Control (%)” value ([4]; CX516 250 μM, n = 4) was 15.088% and the “SC 200 ms Widths fEPSP 1st, Change over Control (%)” value ([4]; CX516 250 μM, n = 4) was 1.525%. The “SC 200 ms Widths fEPSP 2nd, Change over Control (%)” value ([4]; CX516 250 μM, n = 4) was 3.055%, the “SC 50 ms Amplitude fEPSP 1st, Mean” value [4, 6] was 0.171 and the “SC 50 ms Amplitude fEPSP 2nd, Mean” value [4, 6] was 0.142. The “SC 50 ms Widths fEPSP 1st, Mean” value [4, 6] was 0.017, the “SC 50 ms Widths fEPSP 2nd, Mean” value [4, 6] was 0.022 and the “SC 200 ms Amplitude fEPSP 1st, Mean” value [4, 6] was 0.168. The “SC 200 ms Amplitude fEPSP 2nd, Mean” value [4, 6] was 0.151, the “SC 200 ms Widths fEPSP 1st, Mean” value [4, 6] was 0.015 and the “SC 200 ms Widths fEPSP 2nd, Mean” value [4, 6] was 0.031. The “kind of modulation of the responses in CA1 (halfwidth vs amplitude)” value ([4]; CX516, CX546 250 μM, CX554 30 μM) was “amplitude only modulation”.
